Assays:
Type in all cases: cell-based
[1] = test system: Escherichia coli (ATCC 8793); assay: MIC / growth test of aqueous biocide mixtures, same protocol as Example 1, with synergy index; as to growth: key: growth of the microorganism took place (symbol '+'); or not (symbol '−')
Experimental: (§1) Synergy is determined from combination studies of the different actives according to the method of calculation put forward by F. C. Kull et al, Applied Microbiology, 9:538 (1961): Synergy Index (SI)=Qa/QA+Qb/QB
(§2) Where • Qa=concentration of component A in the biocide composition showing the desired effect (e.g. no growth of microorganisms) • QA=concentration of component A as single component showing the desired effect • Qb=concentration of component B in the biocide composition showing the desired effect and • QB=concentration of component B as single component showing the desired effect
(§3) For a system consisting of three active components the synergy index is calculated by the formula: Synergy Index (SI)=Qa/QA+Qb/QB+Qc/QC
(§4) Synergy in a composition then exists when the synergy index is less than 1.
(§5) In this example synergy is shown against the microorganism Staphylococcus aureus (ATCC 6538). For this purpose MIC values were determined for each individual active as well as for different combinations of the 3 actives. MIC (Minimum Inhibitory Concentration) defines the lowest concentration level of a substance to inhibit the growth of a given organism.
(§6) The cell density of S. aureus was 10*5 cells/ml. The incubation time was 24 hr at 32° C.
(§7) TSB (Tryptic Soy […]) was used as nutrient medium.
In this example synergy is shown against the microorganism Escherichia coli (ATCC 8793).
(§8) The test protocol is the same as described under Example 1.
In Table 6 the synergy index has been calculated.

[2] = test system: Pseudomonas aeruginosa (ATCC 9027); assay: as above; as to growth: key: growth of the microorganism took place (symbol '+'); or not (symbol '−')
Experimental: as §1, §2, §3, §4, §5, §6, §7
In this example synergy is shown against the microorganism Pseudomonas aeruginosa (ATCC 9027).
as §8
In Table 4 the synergy index has been calculated.

[3] = test system: Staphylococcus aureus (ATCC 6538); assay: MIC / growth test of aqueous biocide mixtures in TSB, 24 hr at 32° C., with synergy index (Kull); as to growth: key: growth of the microorganism took place (symbol '+'); or not (symbol '−')
Experimental: as §1, §2, §3, §4, §5
Subsequently the activity of these mixtures were tested against Staphylococcus aureus.
as §6, §7
In this way the table represents the MIC value for each tested combination.

[4] = in combination with IPBC 3.9 + CMIT/MIT 0.75 ppm
[5] = in combination with IPBC 7.8 + CMIT/MIT 0.75 ppm
[6] = in combination with IPBC 15.6 + CMIT/MIT 0.75 ppm
[7] = in combination with IPBC 31.2 + CMIT/MIT 0.75 ppm
[8] = single active, incubation time 24 hours

## O=c1[nH]sc2ccccc12 [BIT, 1,2-Benzisothiazolin-3-one]
[1]; BIT 1.56 ppm, single active
  growth: +
[1]; BIT 3.12 ppm, single active
  growth: +
[1]; BIT 6.25 ppm, single active
  growth: −
[1]; BIT 12.5 ppm, single active
  growth: −
[1]; BIT 25 ppm, single active
  growth: −
[1]; BIT 50 ppm, single active
  growth: −
[1]; BIT 100 ppm, single active
  growth: −
[1]; in combination with IPBC 0.98 + CMIT/MIT 0.75 ppm
  MIC BIT con. Qb: 3.12 ppm
[1]; in combination with IPBC 1.95 + CMIT/MIT 0.75 ppm
  MIC BIT con. Qb: 3.12 ppm
[1]; in combination with IPBC 3.9 + CMIT/MIT 0.19 ppm
  MIC BIT con. Qb: 3.12 ppm
[1]; [4]
  MIC BIT con. Qb: 3.12 ppm
[1]; in combination with IPBC 7.8 + CMIT/MIT 0.19 ppm
  MIC BIT con. Qb: 3.12 ppm
[1]; [5]
  MIC BIT con. Qb: 3.12 ppm
[1]; in combination with IPBC 15.6 + CMIT/MIT 0.19 ppm
  MIC BIT con. Qb: 3.12 ppm
[1]; [6]
  MIC BIT con. Qb: 3.12 ppm
[1]; in combination with IPBC 31.2 + CMIT/MIT 0.19 ppm
  MIC BIT con. Qb: 3.12 ppm
[1]; [7]
  MIC BIT con. Qb: 0.78 ppm
[1]; in combination with IPBC 62.5 + CMIT/MIT 0.19 ppm
  MIC BIT con. Qb: 1.56 ppm
[1]; in combination with IPBC 62.5 ppm, CMIT/MIT 0
  MIC BIT con. Qb: 3.12 ppm
[1]; [8]
  MIC as single component (QA, QB, QC): 6.25 ppm
[2]; BIT 6.25 ppm, single active
  growth: +
[2]; BIT 12.5 ppm, single active
  growth: +
[2]; BIT 25 ppm, single active
  growth: +
[2]; BIT 50 ppm, single active
  growth: −
[2]; BIT 100 ppm, single active
  growth: −
[2]; BIT 200 ppm, single active
  growth: −
[2]; [4]
  MIC BIT con. Qb: 12.5 ppm
[2]; [5]
  MIC BIT con. Qb: 12.5 ppm
[2]; [6]
  MIC BIT con. Qb: 12.5 ppm
[2]; [7]
  MIC BIT con. Qb: 12.5 ppm
[2]; in combination with IPBC 62.5 + CMIT/MIT 0.75 ppm
  MIC BIT con. Qb: 6.25 ppm
[2]; in combination with IPBC 125 + CMIT/MIT 0.75 ppm
  MIC BIT con. Qb: 6.25 ppm
[2]; in combination with IPBC 125 ppm, CMIT/MIT 0
  MIC BIT con. Qb: 25 ppm
[2]; [8]
  MIC as single component (QA, QB, QC): 50 ppm
[3]; BIT 0.01 ppm, IPBC 0, without CMIT/MIT
  growth: +
[3]; BIT 0.03 ppm, IPBC 0, without CMIT/MIT
  growth: +
[3]; BIT 0.05 ppm, IPBC 0, without CMIT/MIT
  growth: +
[3]; BIT 0.1 ppm, IPBC 0, without CMIT/MIT
  growth: +
[3]; BIT 0.19 ppm, IPBC 0, without CMIT/MIT
  growth: +
[3]; BIT 0.39 ppm, IPBC 0, without CMIT/MIT
  growth: +
[3]; BIT 0.78 ppm, IPBC 0, without CMIT/MIT
  growth: +
[3]; BIT 1.56 ppm, IPBC 0, without CMIT/MIT
  growth: +
[3]; BIT 3.12 ppm, IPBC 0, without CMIT/MIT
  growth: −
[3]; BIT 3.12 ppm, single active
  growth: +
[3]; BIT 6.25 ppm, IPBC 0, without CMIT/MIT
  growth: −
[3]; BIT 6.25 ppm, single active
  growth: −
[3]; BIT 12.5 ppm, IPBC 0, without CMIT/MIT
  growth: −
[3]; BIT 12.5 ppm, single active
  growth: −
[3]; BIT 25 ppm, single active
  growth: −
[3]; BIT 50 ppm, single active
  growth: −
[3]; BIT 100 ppm, single active
  growth: −
[3]; in combination with IPBC 0.49 + CMIT/MIT 1.5 ppm
  MIC BIT con. Qb: 0.78 ppm
[3]; in combination with IPBC 0.98 + CMIT/MIT 1.5 ppm
  MIC BIT con. Qb: 0.78 ppm
[3]; in combination with IPBC 1.95 + CMIT/MIT 0.37 ppm
  MIC BIT con. Qb: 1.56 ppm
[3]; in combination with IPBC 1.95 + CMIT/MIT 1.5 ppm
  MIC BIT con. Qb: 0.78 ppm
[3]; in combination with IPBC 3.9 + CMIT/MIT 0.37 ppm
  MIC BIT con. Qb: 1.56 ppm
[3]; in combination with IPBC 3.9 + CMIT/MIT 1.5 ppm
  MIC BIT con. Qb: 0.39 ppm
[3]; in combination with IPBC 3.9 ppm, CMIT/MIT 0
  MIC BIT con. Qb: 1.56 ppm
[3]; in combination with IPBC 7.8 + CMIT/MIT 0.37 ppm
  MIC BIT con. Qb: 1.56 ppm
[3]; in combination with IPBC 7.8 + CMIT/MIT 1.5 ppm
  MIC BIT con. Qb: 0.01 ppm
[3]; in combination with IPBC 7.8 ppm, CMIT/MIT 0
  MIC BIT con. Qb: 0.78 ppm
[3]; [8]
  MIC as single component (QA, QB, Qc): 6.25 ppm
